{"source": "paper PMC3660367", "about": "“MARCKS Protein Is Phosphorylated and Regulates Calcium Mobilization during Human Acrosomal Exocytosis” (PLoS ONE, 2013)", "key": {"[1]": {"system": "acrosomal exocytosis in non-permeabilized human sperm", "experiment": "Acrosomal exocytosis assay in non-permeabilized (living) human sperm", "format": "cell-based", "protocol": "Acrosomal exocytosis assays were performed as previously described. Briefly, human semen obtained from normal healthy donors was allowed to liquefy for 30-60 min at 37°C. We used a swim-up protocol to isolate highly motile sperm under capacitating conditions in Human Tubal Fluid media (HTF, as formulated by Irvine Scientific, Santa Ana, CA) supplemented with 0.5% bovine serum albumin (BSA) for 1 h at 37°C in an atmosphere of 5% CO2/95% air. Sperm concentrations were adjusted to 5–10×10^6 cells/ml and incubated for at least 2 h under capacitating conditions. We have shown previously that human sperm incubated under these conditions are responsive to progesterone. […] Acrosomal status was evaluated by staining with FITC-coupled Pisum sativum agglutinin (FITC-PSA) according to [21]. At least 200 cells were scored using a Nikon Optiphot II microscope equipped with epifluorescence optics. […] For each experiment, acrosomal exocytosis indexes were calculated by subtracting the number of reacted spermatozoa in the negative control (range 10%–30%) from all values, and expressing the resulting values as a percentage of the acrosome exocytosis observed in the positive control (range 25%–40%). […] Data were evaluated using one-way ANOVA and post hoc tests (Dunnett's test or confident intervals). […]"}, "living human sperm": {"system": "living human sperm", "experiment": "Permeation of ED-TMR into non-permeabilized human sperm (fluorescence microscopy, trypsin treatment before fixation)", "format": "cell-based", "conditions": "4 µM ED-TMR 30 min 37°C, then 0.5 µg/ml trypsin 30 min 37°C before fixation", "from_the_text": "So far all results were obtained using the SLO-permeabilized human sperm model. […] Fortunately, MARCKS ED meets this requirement and it can be assayed in acrosomal exocytosis in non-permeabilized sperm. To investigate the function of MARCKS in intact cells, we analyzed the effect of a permeable peptide corresponding to wt MARCKS ED in living human sperm. We used a commercial MARCKS peptide, the tetramethylrhodamine-conjugated peptide sequence KKRFSFKKSFKL (ED-TMR) derived from amino acid residues 154 –165 of human MARCKS ED, which retains the first two of the four serine residues in the ED (see peptide scheme in Fig. 3A). First, we determined the permeability of ED-TMR in living human sperm (see Fig. S3). To rule out that the translocation of the protein was a fixation artifact, cells were treated with trypsin before fixation. […] A similar permeable MARCKS peptide has been used in sea urchin sperm and it was found enriched in the acrosome region.\nSupplementary file pone.0064551.s003.tif: Figure S3 MARCKS peptide permeates into non-permeabilized sperm. (A) Non-permeabilized sperm were treated for 30 minutes at 37°C with 4 µM permeable MARCKS ED domain (ED-TMR) and then incubated with (+) or without (-) 0.5 µg/ml trypsin for 30 minutes at 37°C. […] (B) Quantification of tetramethylrhodamine-labeled acrosome sperm. At least 300 cells were scored. […]"}}, "note": "No end group written: not given here.", "data": [{"sequence": "KKRFSFKKSFKL (also: tetramethylrhodamine conjugate, site not given here) [ED-TMR, commercial (Anaspec) tetramethylrhodamine-conjugated peptide … from residues 154–165 of human MARCKS ED]", "values": [{"measurement": "effect on acrosomal exocytosis stimulated by A23187, PMA and progesterone", "setting": "[1]; non-permeabilized capacitated sperm, peptide 30 min 37°C, then 10 µM A23187, 200 nM PMA or 15 µM progesterone 15 min", "value": "inhibited the secretion"}, {"measurement": "acrosomal exocytosis index at high concentrations versus unstimulated controls (basal exocytosis)", "setting": "[1]; non-permeabilized sperm, high concentrations", "value": "significantly lower than the index in unstimulated controls"}, {"measurement": "permeability of ED-TMR in living human sperm (localisation)", "setting": "living human sperm", "value": "detected mainly in the head of human sperm"}]}]}
